Tested on: Male C57BL/6J mice, permanent occlusion of the middle cerebral artery (focal ischemia)
Experiment: Focal ischemia in mice: permanent occlusion of the middle cerebral artery, infarct volume by 2,3,5-triphenyl-tetrazolium chloride staining
Assay type: in vivo
Conditions: assessed 24 hours after occlusion; for Reduction of infarct volume versus saline-injected control mice: 30 minutes before artery occlusion (FIG. 1)
Description: Male C57BL/6J mice were subjected to a permanent occlusion of the middle cerebral artery. For prophylactic studies, carnosine (100 mg/kg or 500 mg/kg, I.P.) was administered thirty (30) minutes (FIG. 1) or sixty (60) minutes (FIG. 2) before artery occlusion. For treatment studies, carnosine (1000 mg/kg, I.P.) was administered sixty (60) minutes after artery occlusion (FIG. 2).
Damage to the neural tissue (i.e., infarct volume) was assessed twenty-four (24) hours after occlusion by 2,3,5-triphenyl-tetrazolium chloride staining. Infarct volumes were reduced by 49% and 65% in mice prophylactically given 100 mg/kg and 500 mg/kg carnosine, respectively, versus saline-injected control mice. (FIG. 1) This protective dose dependence was reproduced in a second experiment that compared a post-occlusion carnosine administration. In this experiment, infarct volumes were reduced by 40% and 52%, respectively in mice prophylactically given 100 mg/kg and 500 mg/kg carnosine. A 40% reduction in infarct volume was also observed when mice were administered 1000 mg/kg carnosine after the occlusion.

In the case of `NCCC(=O)N[C@@H](Cc1c[nH]cn1)C(=O)O` [carnosine, β-alanyl-L-histidine], the “Reduction of infarct volume versus saline-injected control mice” value (100 mg/kg I.P., prophylactic) is reported as 49%, the “Reduction of infarct volume versus saline-injected control mice” value (500 mg/kg I.P., prophylactic) is reported as 65% and the “Reduction of infarct volume” value (second experiment (FIG. 2): 100 mg/kg I.P., prophylactic, 60 minutes before artery occlusion) is reported as 40%. For the same molecule, the “Reduction of infarct volume” value (second experiment (FIG. 2): 500 mg/kg I.P., prophylactic, 60 minutes before artery occlusion) was 52% and the “Reduction of infarct volume” value (second experiment (FIG. 2): 1000 mg/kg I.P., treatment, 60 minutes after artery occlusion) was 40%.
